Article PMC5038320, “Cryptosporidium and Toxoplasma Parasites Are Inhibited by a Benzoxaborole Targeting Leucyl-tRNA Synthetase” (Antimicrobial Agents and Chemotherapy, 2016)
pKd: −log10 of the molar value. Read-outs that look alike come from different tables or passages of the source.

Assays:
[1] = molecular target: T1, C. muris cytosolic leucyl-tRNA synthetase (CmLeuRS) editing domain (Cryptosporidium muris, UniProt B6AA20); test: ITC; crystal structure ([…] Å); type: binding
T1 construct: gene CMU_041310; connective polypeptide domain (CP1) residues 254 to 541
T1 sequence (B6AA20 entry or part of it): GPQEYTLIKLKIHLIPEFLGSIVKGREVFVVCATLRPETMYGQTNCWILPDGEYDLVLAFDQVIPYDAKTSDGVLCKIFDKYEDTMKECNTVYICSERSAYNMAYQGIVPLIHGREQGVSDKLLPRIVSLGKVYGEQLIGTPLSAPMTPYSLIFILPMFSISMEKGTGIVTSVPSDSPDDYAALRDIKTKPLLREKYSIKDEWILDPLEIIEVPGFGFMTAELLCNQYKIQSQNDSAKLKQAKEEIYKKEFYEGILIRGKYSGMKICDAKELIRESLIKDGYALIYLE

[2] = molecular target: T1, C. muris cytosolic leucyl-tRNA synthetase (CmLeuRS) editing domain; test: ITC; crystal structure ([…] Å); type: binding; remark: listed apart in the source

Structure (SMILES): CC[C@H](C)[C@H](N)C(=O)N[C@@H]1[C@H](O)[C@@H](CO)O[C@H]1n1cnc2c(N)ncnc21 [Ile2AA, 2-(L-isoleucyl)amino-2-deoxyadenosine]
- pKd [1]: 3.67

Structure (SMILES): CCC[C@H](N)C(=O)N[C@@H]1[C@H](O)[C@@H](CO)O[C@H]1n1cnc2c(N)ncnc21 [Nva2AA, 2-(L-norvalyl)amino-2-deoxyadenosine]
- pKd [2]: 3.67
